{"source": "patent US20250134883A1", "about": "“NOVEL COMPOSITIONS” (TULEX PHARMACEUTICALS INC., priority 2022, published 2025)", "origin": "cited, not measured here", "settings": "high dose naltrexone (0.5, 1.0 and 2.0 mg/kg)"}
{"compound": "O=C1CC[C@@]2(O)[C@H]3Cc4ccc(O)c5c4[C@@]2(CCN3CC2CC2)[C@H]1O5", "note": "[naltrexone, Naltrexone]", "values": [{"measurement": "effect on autistic behavior and gaze aversion", "result": "reverse autistic behavior and gaze aversion"}]}
